Experimental data reported in ChEMBL document CHEMBL1201862, “PubChem BioAssay data set” (2004).
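48-hour exposure; five concentrations; linearly interpolated endpoints. At the GI50, growth is halved.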 The source made the active and inactive calls. No stated cut-off is given here; in the data, active = GI50 up to about 1.1 µM and inactive = higher.

Experiments:
Assay in all cases: NCI anticancer screen, dose series, 48 h
SF-268 = test system: SF-268
OVCAR-8 = test system: OVCAR-8
MCF7 = test system: MCF7
OVCAR-4 = test system: OVCAR-4
TK-10 = test system: TK-10
Hs-578T = test system: Hs-578T
PC-3 = test system: PC-3
SNB-75 = test system: SNB-75
HL-60 = test system: HL-60
RPMI-8226 = test system: RPMI-8226
K562 = test system: K562
SF-539 = test system: SF-539
SW-620 = test system: SW-620
MOLT-4 = test system: MOLT-4
HOP-62 = test system: HOP-62
UO-31 = test system: UO-31
SK-MEL-2 = test system: SK-MEL-2
NCI-H226 = test system: NCI-H226
SK-OV-3 = test system: SK-OV-3
MDA-N = test system: MDA-N

Measured: GI50

Cc1nc2ccc(F)cc2c2c1CCS2
inactive: SF-268 40.6 µM | OVCAR-8 69.3 µM | MCF7 56.4 µM | OVCAR-4 > 100 µM | TK-10 54.5 µM | Hs-578T 43 µM | PC-3 41.1 µM | SNB-75 38.6 µM | HL-60 24 µM | RPMI-8226 38.8 µM | K562 34.6 µM | SF-539 > 100 µM | SW-620 > 100 µM | MOLT-4 38.1 µM | HOP-62 57.4 µM | UO-31 65.9 µM

CC1(C)CC[C@]2(C)[C@@H](O)C[C@]3(C)C(=CC[C@@H]4[C@@]5(C)CC[C@H](O)C(C)(C)[C@@H]5CC[C@]43C)[C@@H]2C1
inactive: SF-268 46.3 µM | OVCAR-8 20.3 µM | MCF7 37.9 µM | OVCAR-4 97.3 µM | TK-10 27.9 µM | Hs-578T 24.4 µM | SK-MEL-2 26.4 µM | PC-3 29 µM | HL-60 > 100 µM | NCI-H226 35 µM | K562 > 100 µM | SW-620 > 100 µM | MOLT-4 > 100 µM | HOP-62 37 µM | UO-31 20.4 µM | SK-OV-3 14.9 µM | MDA-N > 100 µM

O=C(O)c1ccccc1/N=N/c1c(O)c(S(=O)(=O)O)cc2cc(S(=O)(=O)O)ccc12
inactive: SF-268 > 100 µM | OVCAR-8 > 100 µM | MCF7 > 100 µM | OVCAR-4 > 100 µM | TK-10 > 100 µM | Hs-578T > 100 µM | SK-MEL-2 > 100 µM | PC-3 > 100 µM | SNB-75 > 100 µM | HL-60 > 100 µM | NCI-H226 > 100 µM | K562 > 100 µM | SF-539 > 100 µM | SW-620 > 100 µM | MOLT-4 > 100 µM | HOP-62 > 100 µM | UO-31 > 100 µM | SK-OV-3 > 100 µM | MDA-N > 100 µM

O=C(CC1C=CCS1(=O)=O)NCc1ccccc1 (stereo not drawn)
inactive: SF-268 > 100 µM | OVCAR-8 > 100 µM | MCF7 > 100 µM | OVCAR-4 > 100 µM | TK-10 > 100 µM | Hs-578T > 100 µM | PC-3 > 100 µM | SNB-75 > 100 µM | HL-60 > 100 µM | NCI-H226 > 100 µM | K562 > 100 µM | SF-539 > 100 µM | SW-620 > 100 µM | MOLT-4 > 100 µM | HOP-62 > 100 µM | UO-31 > 100 µM | SK-OV-3 > 100 µM | MDA-N > 100 µM

O=C1C(=O)N(C2CCCCC2)C(=S)N1C1CCCCC1
inactive: SF-268 > 100 µM | OVCAR-8 > 100 µM | OVCAR-4 > 100 µM | TK-10 > 100 µM | Hs-578T > 100 µM | SK-MEL-2 > 100 µM | PC-3 > 100 µM | SNB-75 > 100 µM | HL-60 > 100 µM | RPMI-8226 > 100 µM | NCI-H226 > 100 µM | K562 > 100 µM | SF-539 > 100 µM | SW-620 > 100 µM | MOLT-4 > 100 µM | HOP-62 > 100 µM | UO-31 > 100 µM | SK-OV-3 > 100 µM | MDA-N > 100 µM

O=c1c2cc([N+](=O)[O-])ccc2[nH]n1Cc1ccccn1
inactive: SF-268 > 100 µM | OVCAR-8 > 100 µM | OVCAR-4 > 100 µM | TK-10 > 100 µM | Hs-578T > 100 µM | PC-3 > 100 µM | SNB-75 > 100 µM | HL-60 > 100 µM | RPMI-8226 > 100 µM | NCI-H226 > 100 µM | K562 > 100 µM | SF-539 > 100 µM | SW-620 > 100 µM | MOLT-4 > 100 µM | HOP-62 > 100 µM | UO-31 > 100 µM | MDA-N > 100 µM

O=C(c1ccco1)N(C(=S)OC12CC3CC(CC(C3)C1)C2)c1ccccc1
inactive: SF-268 32.9 µM | OVCAR-8 31.3 µM | MCF7 26.2 µM | OVCAR-4 36.1 µM | TK-10 42.3 µM | Hs-578T 32.6 µM | SK-MEL-2 21.2 µM | PC-3 20.5 µM | SNB-75 48.5 µM | HL-60 19.3 µM | NCI-H226 27.2 µM | K562 28.6 µM | SF-539 20.2 µM | SW-620 29 µM | MOLT-4 24.4 µM | HOP-62 28.2 µM | UO-31 24.9 µM | SK-OV-3 23.4 µM | MDA-N 29.4 µM

CCOC(=O)c1nc2ccc(C(F)(F)F)cc2nc1Nc1cc(OC)c(OC)c(OC)c1
inactive: SF-268 > 100 µM | OVCAR-8 > 100 µM | MCF7 > 100 µM | TK-10 > 100 µM | Hs-578T > 100 µM | PC-3 > 100 µM | SNB-75 > 100 µM | HL-60 > 100 µM | RPMI-8226 > 100 µM | K562 > 100 µM | SF-539 > 100 µM | SW-620 > 100 µM | MOLT-4 > 100 µM | HOP-62 > 100 µM | UO-31 > 100 µM | SK-OV-3 > 100 µM | MDA-N > 100 µM

O=[N+]([O-])c1ccc(S[C@@H]2[C@H]3c4c(-c5ccccc5)[nH]c(-c5ccccc5)c4[C@@H]2C[C@H]3Cl)cc1
inactive: SF-268 2.68 µM | OVCAR-8 4.38 µM | MCF7 2.31 µM | OVCAR-4 1.6 µM | TK-10 4.99 µM | Hs-578T 5.08 µM | SK-MEL-2 11.2 µM | PC-3 3.8 µM | SNB-75 2.15 µM | HL-60 3.17 µM | NCI-H226 6.71 µM | SF-539 6.75 µM | SW-620 3.37 µM | HOP-62 3.56 µM | UO-31 1.62 µM | SK-OV-3 9.98 µM | MDA-N 2.89 µM

CCn1c(=O)c2c3ccc(OC)cc3[nH]c2c2ccc(OC)cc21
inactive: SF-268 62.2 µM | OVCAR-8 73.3 µM | MCF7 50.1 µM | OVCAR-4 54.1 µM | TK-10 > 100 µM | Hs-578T 40.7 µM | PC-3 39.2 µM | SNB-75 19.8 µM | NCI-H226 > 100 µM | K562 25.7 µM | SF-539 52.5 µM | SW-620 57.3 µM | MOLT-4 22.6 µM | HOP-62 37.5 µM | UO-31 47.9 µM | SK-OV-3 80.7 µM | MDA-N 62.8 µM

CCOP(=O)(OCC)C(C)(CC)NC (stereo not drawn)
inactive: SF-268 > 100 µM | OVCAR-8 > 100 µM | MCF7 > 100 µM | OVCAR-4 > 100 µM | TK-10 > 100 µM | Hs-578T > 100 µM | SK-MEL-2 > 100 µM | SNB-75 > 100 µM | HL-60 > 100 µM | NCI-H226 > 100 µM | K562 > 100 µM | SF-539 > 100 µM | SW-620 > 100 µM | MOLT-4 > 100 µM | HOP-62 > 100 µM | UO-31 > 100 µM | SK-OV-3 > 100 µM | MDA-N > 100 µM

CC(C)(C)C(=O)Oc1ccc(/C=C/C(=O)c2ccc(OC(=O)C(C)(C)C)cc2)cc1
inactive: SF-268 74 µM | OVCAR-8 40.4 µM | MCF7 46.5 µM | OVCAR-4 56.2 µM | TK-10 > 100 µM | Hs-578T 18 µM | SK-MEL-2 > 100 µM | PC-3 > 100 µM | SNB-75 64.9 µM | HL-60 47 µM | NCI-H226 > 100 µM | K562 26.3 µM | SF-539 33 µM | SW-620 > 100 µM | MOLT-4 24.4 µM | HOP-62 82.2 µM | SK-OV-3 > 100 µM | MDA-N 39.1 µM

CC1(C)CC(=O)C(CC2C(=O)c3ccccc3C2=O)C(=O)C1C(=O)C(=O)Nc1cccc2ccc(O)cc12 (stereo not drawn)
inactive: SF-268 > 100 µM | OVCAR-8 > 100 µM | MCF7 32.2 µM | OVCAR-4 88.7 µM | TK-10 54 µM | Hs-578T 74.6 µM | SK-MEL-2 > 100 µM | PC-3 51.4 µM | SNB-75 78 µM | HL-60 > 100 µM | RPMI-8226 66.5 µM | NCI-H226 29 µM | K562 40.9 µM | SF-539 > 100 µM | SW-620 > 100 µM | MOLT-4 53.5 µM | UO-31 33.8 µM | SK-OV-3 > 100 µM

CSc1ccccc1P(c1ccccc1SC)c1ccccc1SC
inactive: SF-268 > 100 µM | OVCAR-8 > 100 µM | MCF7 > 100 µM | OVCAR-4 > 100 µM | TK-10 > 100 µM | Hs-578T 98.2 µM | SK-MEL-2 > 100 µM | RPMI-8226 > 100 µM | NCI-H226 > 100 µM | K562 > 100 µM | SF-539 > 100 µM | SW-620 > 100 µM | MOLT-4 > 100 µM | HOP-62 25.4 µM | UO-31 > 100 µM | SK-OV-3 > 100 µM | MDA-N > 100 µM

Cc1ccc2c3c(cnc2n1)C(=O)OCCN3C
inactive: SF-268 > 100 µM | OVCAR-8 > 100 µM | MCF7 > 100 µM | OVCAR-4 > 100 µM | TK-10 > 100 µM | Hs-578T > 100 µM | SK-MEL-2 > 100 µM | PC-3 > 100 µM | HL-60 > 100 µM | K562 > 100 µM | SF-539 > 100 µM | SW-620 > 100 µM | MOLT-4 > 100 µM | HOP-62 > 100 µM | UO-31 > 100 µM | MDA-N > 100 µM
